Experimental data reported in ChEMBL document CHEMBL1201862, “PubChem BioAssay data set” (2004).
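In this assay, cells in 96-well plates receive the compound at five concentrations for 48 hours. Endpoints are linearly interpolated between the surrounding concentrations. Here, GI50 denotes the concentration required for 50% inhibition of growth.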 The source made the active and inactive calls. Cut-off read from the data, not from the text of the source: active = GI50 up to about 1.1 µM and inactive = higher.

Key:
Experiment in all cases: DTP human tumour cell line panel, 48 h
MOLT-4 = system: MOLT-4
SK-OV-3 = system: SK-OV-3
SK-MEL-5 = system: SK-MEL-5
HOP-62 = system: HOP-62
KM12 = system: KM12
MDA-MB-435 = system: MDA-MB-435
OVCAR-5 = system: OVCAR-5
COLO 205 = system: COLO 205
M14 = system: M14
786-0 = system: 786-0
SNB-75 = system: SNB-75
HCC 2998 = system: HCC 2998
DU-145 = system: DU-145
RXF 393 = system: RXF 393
NCI-H460 = system: NCI-H460
SF-539 = system: SF-539
IGROV-1 = system: IGROV-1
CAKI-1 = system: CAKI-1
HCT-15 = system: HCT-15
NCI-H522 = system: NCI-H522

SMILES | GI50 (MOLT-4) | GI50 (SK-OV-3) | GI50 (SK-MEL-5) | GI50 (HOP-62) | GI50 (KM12) | GI50 (MDA-MB-435) | GI50 (OVCAR-5) | GI50 (COLO 205) | GI50 (M14) | GI50 (786-0) | GI50 (SNB-75) | GI50 (HCC 2998) | GI50 (DU-145) | GI50 (RXF 393) | GI50 (NCI-H460) | GI50 (SF-539) | GI50 (IGROV-1) | GI50 (CAKI-1) | GI50 (HCT-15) | GI50 (NCI-H522)
C/C1=C/C(=O)O[C@@H]2C[C@@H](CC[C@H](C)/C=C\C=C\CC1)O[C@@](O)([C@@H]1CSC(=O)N1)C2 [LATRUNCULIN A] | > 5.83 µM (inactive) | > 4.16 µM (inactive) | 0.444 µM (active) | 0.178 µM (active) | > 10 µM (inactive) | 0.44 µM (active) | 0.484 µM (active) | 0.18 µM (active) | 0.565 µM (active) | 0.226 µM (active) | 0.075 µM (active) | > 2.97 µM (inactive) | 2.77 µM (inactive) | 0.191 µM (active) | 0.8 µM (active) | 0.171 µM (active) | 0.133 µM (active) | 0.0741 µM (active) | 0.52 µM | –
CCOC(=O)/C(=C\c1cn(C(C)=O)c2ccccc12)P(C)(=O)OCC (centres undefined) | > 100 µM (inactive) | 27.1 µM (inactive) | 47.5 µM (inactive) | 33.2 µM (inactive) | 33.1 µM (inactive) | 31.8 µM (inactive) | 68.7 µM (inactive) | 54.5 µM (inactive) | 16.7 µM (inactive) | 39.5 µM (inactive) | 11 µM (inactive) | 27.9 µM (inactive) | 25.9 µM (inactive) | – | – | 19.8 µM (inactive) | 16.8 µM (inactive) | 46.2 µM (inactive) | 28.8 µM | 19.2 µM (inactive)
Cc1oc2nc(N(C)C)nc(Cl)c2c1C | > 100 µM (inactive) | – | > 100 µM (inactive) | > 100 µM (inactive) | > 100 µM (inactive) | > 100 µM (inactive) | > 100 µM (inactive) | > 100 µM (inactive) | > 100 µM (inactive) | > 100 µM (inactive) | 3.89 µM (inactive) | > 100 µM (inactive) | > 100 µM (inactive) | 40.6 µM (inactive) | > 100 µM (inactive) | > 100 µM (inactive) | 49.8 µM (inactive) | 49.4 µM (inactive) | > 100 µM | > 100 µM (inactive)
CN1CCN(c2cc3c(cc2F)c(=O)c(C(=O)O)cn3C2CC2)CC1CC#N (centres undefined) | > 100 µM (inactive) | > 100 µM (inactive) | > 100 µM (inactive) | > 100 µM (inactive) | > 100 µM (inactive) | > 100 µM (inactive) | > 100 µM (inactive) | > 100 µM (inactive) | – | > 100 µM (inactive) | > 100 µM (inactive) | > 100 µM (inactive) | > 100 µM (inactive) | > 100 µM (inactive) | > 100 µM (inactive) | > 100 µM (inactive) | > 100 µM (inactive) | > 100 µM (inactive) | > 100 µM | –
CO/C(=N\N=C\c1cccc(Cl)c1)c1ccncc1 | > 10 µM (inactive) | – | – | > 10 µM (inactive) | > 10 µM (inactive) | > 10 µM (inactive) | > 10 µM (inactive) | > 10 µM (inactive) | > 10 µM (inactive) | > 10 µM (inactive) | – | > 10 µM (inactive) | > 10 µM (inactive) | > 10 µM (inactive) | > 10 µM (inactive) | – | – | > 10 µM (inactive) | > 10 µM | > 10 µM (inactive)
C=C(COC(=O)C(C)C)[C@H]1Oc2ccc(C(C)=O)cc2[C@@H]1OC(=O)C(C)C | > 100 µM (inactive) | > 100 µM (inactive) | > 100 µM (inactive) | > 100 µM (inactive) | > 100 µM (inactive) | > 100 µM (inactive) | > 100 µM (inactive) | > 100 µM (inactive) | > 100 µM (inactive) | > 100 µM (inactive) | > 100 µM (inactive) | > 100 µM (inactive) | > 100 µM (inactive) | > 100 µM (inactive) | > 100 µM (inactive) | > 100 µM (inactive) | > 100 µM (inactive) | > 100 µM (inactive) | > 100 µM | –
COc1cccc2nc3ccccc3nc12 | 60.8 µM (inactive) | > 100 µM (inactive) | 54.8 µM (inactive) | > 100 µM (inactive) | 74.1 µM (inactive) | > 100 µM (inactive) | > 100 µM (inactive) | 90.2 µM (inactive) | > 100 µM (inactive) | 74.1 µM (inactive) | 60 µM (inactive) | 79.4 µM (inactive) | > 100 µM (inactive) | 39.3 µM (inactive) | 39.8 µM (inactive) | 84.5 µM (inactive) | – | 61 µM (inactive) | 39.1 µM | –
Cc1cc(OCc2nn(CN3CCN(C)CC3)c(=S)n2/N=C/c2ccc(-c3ccc(Cl)cc3Cl)o2)ccc1Cl | 67.8 µM (inactive) | > 100 µM (inactive) | 44.5 µM (inactive) | 39.3 µM (inactive) | 20.3 µM (inactive) | 29.5 µM (inactive) | > 100 µM (inactive) | – | 33.7 µM (inactive) | 90.2 µM (inactive) | – | 16.1 µM (inactive) | > 100 µM (inactive) | 17.2 µM (inactive) | 67.8 µM (inactive) | > 100 µM (inactive) | > 100 µM (inactive) | 47.9 µM (inactive) | 28.5 µM | 24.5 µM (inactive)
